Data on 1 compound can be found in US20100291592A1, “NOVEL MARKER FOR SENSITIVITY AGAINST SULFONAMIDE COMPOUND” (priority 2006, published 2010).

The subject of assay [1] is EGFR1. In words: EGFR1 expression level in PC9 subcutaneous transplant model (immunohistochemical staining). It counts as in vivo. Particulars: PC9 tumors in nude mice, 25, 50, 100 or 200 mg/kg orally twice a day for 7 days, versus unadministered group. As to the method: PC9 was cultured in RPMI1640 (containing 10% FBS) in a 5% carbon dioxide incubator at 37° C. The cultured human tumor cells (PC9) (8×10^6 cells/mouse) were subcutaneously transplanted into nude mice (KSN mice from SLC). Once proliferation of the tumors transplanted into the mice was observed, E7820 was orally administered to the mice for 0 mg/kg (unadministered), 25 mg/kg, 50 mg/kg, 100 mg/kg or 200 mg/kg twice a day for 7 days. Following 7 days of administration, tumor tissues were removed from the mice, fixed with formalin and embedded in paraffin. Subsequently, the paraffin-embedded tumor tissues were sliced into a thickness of 6 μm, placed on glass slides and deparaffinized with xylene/ethanol. Then, these sections were treated with […] (Roche), and subjected to immunostaining according to the protocol of Simple Stain kit: mouse MAX-PO (M) (NICHIREI) using an anti-EGFR antibody (DakoCytomation). Referring to FIG. 5, (a) to (f) show stain with control IgG (negative control), E7820-unadministered group, E7820-administered group (25 mg/kg), E7820-administered group (50 mg/kg), E7820-administered group (100 mg/kg) and E7820-administered group (200 mg/kg), respectively. Each panel was enlarged twenty times. […] This proves that E7820 also exerts an anti-tumor effect at tissue level by decreasing the EGFR1 expression level. […]

Assay [2] concerns human non-small cell lung cancer cell line (PC9). In words: Anti-tumor effect on subcutaneous transplant model of PC9. It counts as in vivo, nude mouse. Particulars: PC9 subcutaneous transplant, 50, 100 or 200 mg/kg orally twice a day for 14 days. As to the method: (§1) Human non-small-cell lung cancer cell line PC9 (obtained from Immuno-Biological laboratories Co., Ltd.), human non-small-cell lung cancer cell line A549 (obtained from Dainippon Pharmaceutical), human colon cancer cell line WiDr (obtained from Dainippon Pharmaceutical) and human colon cancer cell line HCT116 (obtained from ATCC) were cultured in RPMI1640 (containing 10% FBS) in a 5% carbon dioxide incubator at 37° C. to about 80% confluence, and the cells were collected with trypsin-EDTA. Using a phosphate buffer for PC9, WiDr and HCT116 and a 50% matrigel-containing phosphate buffer for A549, 5×10^7 cells/mL suspensions were prepared, respectively. Then, 0.1 mL each of the resulting cell suspensions was subcutaneously transplanted to the side of a nude mouse.
(§2) For PC9, 8 days after the transplantation, E7820 was orally administered for 50 mg/kg, 100 mg/kg or 200 mg/kg twice a day for 14 days. For A549, 24 days after the transplantation, E7820 was orally administered for 50 mg/kg or 200 mg/kg twice a day for 7 days. For WiDr, 11 days after the transplantation, E7820 was orally administered for 50 mg/kg, 100 mg/kg or 200 mg/kg twice a day for 14 days. […]
(§3) The major and minor axes of tumors were measured with Digimatic caliper (Mitsutoyo), and tumor volumes and relative tumor volumes were calculated according to the following formulae. […]

Assay [3] concerns human colon cancer cell line (HCT116). The experiment in a line: Anti-tumor effect on subcutaneous transplant model of HCT116. Conditions: 6.25-200 mg/kg orally twice a day for 14 days. It counts as in vivo, nude mouse. As to the method:
as §1, §2, §3

The test system of assay [4] is EGFR1. In words: EGFR1 expression level in WiDr subcutaneous transplant model (western blotting). Particulars: for EGFR1 expression level (% of control) WiDr: WiDr tumor in nude mouse. The assay is classed as in vivo, nude mouse. The procedure: HCT116 or WiDr was cultured in RPMI1640 (containing 10% FBS) in a 5% carbon dioxide incubator to about 80% confluence. The cells were collected with trypsin-EDTA according to a routine procedure and 5×10^7 cells/mL suspensions were prepared with a phosphate buffer. Then, 0.1 mL each of the resulting suspension was subcutaneously transplanted to the side of a nude mouse.
For HCT116, 23 days after the transplantation, E7820 was orally administered for 12.5 mg/kg, 50 mg/kg or 200 mg/kg twice a day for 3 days. On the other hand, for WiDr, 18 days after the transplantation, E7820 was orally administered for 50 mg/kg or 200 mg/kg twice a day for 7 days. Four days after the start of administration for HCT116 and 8 days after the start of administration for WiDr, tumors were removed to prepare tumor cell lysates with various protease inhibitors and a cell lysis solution containing 10% glycerol and 1% Triton X-100 in ice. For each tumor cell lysate, an equal amount of protein was fractionated by SDS-PAGE and transferred onto a nitrocellulose membrane (Hybond ECL, Amersham Biosciences). Then, western blotting was performed by using an anti-EGFR1 antibody (Santa Cruz Biotechnology) and horse radish peroxidase-labeled anti-mouse IgG antibody (secondary antibody) (Cell Signaling) according to a routine procedure.
Detection and quantification of each band were carried out as follows. First, each band was forced to chemically develop a color with Chemiluminescent Substrate (PIERCE), which was then captured as a digital image with Image Master VDS-CL (Amersham Pharmacia Biotech, Tokyo). The digital images were saved as TIF files and numerically converted with Image Master total Lab (version 1.00, Amersham Pharmacia Biotech, Tokyo).
A general note: A western blot detects proteins with antibodies after separation by electrophoresis.

The subject of assay [5] is human colon cancer cell line (WiDr). The experiment in a line: Anti-tumor effect on subcutaneous transplant model of WiDr. The assay is classed as in vivo, nude mouse. Conditions: WiDr subcutaneous transplant, 50, 100 or 200 mg/kg orally twice a day for 14 days. As to the method: as §1, §2, §3

Turning to `Cc1ccc(NS(=O)(=O)c2cccc(C#N)c2)c2[nH]cc(C#N)c12` [E7820, N-(3-cyano-4-methyl-1H-indole-7-yl)-3-cyanobenzenesulfonamide], the “Effect on EGFR1 expression level (immunohistochemical staining, in words)” value in assay [1] is reported as “decrease in the EGFR1 expression level was significant”. Also, the “Anti-tumor effect (relative tumor volume)” value in assay [2] is reported as “stronger anti-tumor effects”; in assay [3], “stronger anti-tumor effects”; in assay [5] it was “showed anti-tumor effects”. In addition, the “Effect on EGFR1 expression level (in words)” value in assay [4] (WiDr transplanted tumors) was “did not change the EGFR1 expression level”. Moreover, the “EGFR1 expression level (% of control) WiDr” value is 117 % of control in assay [4] (50 mg/kg orally twice a day for 7 days) and 121 % of control in assay [4] (200 mg/kg orally twice a day for 7 days).
